Results on four compounds are retold here after ChEMBL document CHEMBL1136070, “Design and synthesis of phosphotyrosine mimetics” (Bioorg Med Chem Lett, 2003).

The target of assay [1] is Receptor-type tyrosine-protein phosphatase C (CD45) (Homo sapiens) (UniProt P08575). In words: Compound was tested for inhibition of CD45 tyrosine phosphatase at a concentration of 10 uM in fluorometric assay using DiFMUP.
Assay [2] has the same target. In words: Compound was tested for inhibition of CD45 tyrosine phosphatase at a concentration of 100 uM in fluorometric assay using DiFMUP.
Assay [3] has as its target Receptor-type tyrosine-protein phosphatase F (Homo sapiens) (UniProt P10586). The assay can be described thus: Compound was tested for inhibition of Lar tyrosine phosphatase at a concentration of 100 uM in fluorometric assay using DiFMUP.
For assay [4], the target named is T1, Tyrosine-protein phosphatase non-receptor type 1 (Homo sapiens) (UniProt P18031).
T1 sequence (whole entry): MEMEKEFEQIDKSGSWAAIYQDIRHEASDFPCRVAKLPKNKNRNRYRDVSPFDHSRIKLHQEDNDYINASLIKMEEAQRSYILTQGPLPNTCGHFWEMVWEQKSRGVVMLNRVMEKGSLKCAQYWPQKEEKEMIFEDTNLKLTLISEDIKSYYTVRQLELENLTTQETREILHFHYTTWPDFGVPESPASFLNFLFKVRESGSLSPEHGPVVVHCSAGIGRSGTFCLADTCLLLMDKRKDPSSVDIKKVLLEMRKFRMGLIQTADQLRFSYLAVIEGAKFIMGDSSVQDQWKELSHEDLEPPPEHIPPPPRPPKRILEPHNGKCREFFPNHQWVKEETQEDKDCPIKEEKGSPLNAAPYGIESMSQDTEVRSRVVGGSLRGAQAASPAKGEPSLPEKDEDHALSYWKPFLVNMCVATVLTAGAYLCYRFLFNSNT
The assay can be described thus: Compound was tested for inhibition of Protein-tyrosine phosphatase 1B at a concentration of 10 uM in fluorometric assay using DiFMUP.

In assay [5] the target is T2, Tyrosine-protein phosphatase non-receptor type 2 (Homo sapiens) (UniProt P17706).
T2 sequence (whole entry): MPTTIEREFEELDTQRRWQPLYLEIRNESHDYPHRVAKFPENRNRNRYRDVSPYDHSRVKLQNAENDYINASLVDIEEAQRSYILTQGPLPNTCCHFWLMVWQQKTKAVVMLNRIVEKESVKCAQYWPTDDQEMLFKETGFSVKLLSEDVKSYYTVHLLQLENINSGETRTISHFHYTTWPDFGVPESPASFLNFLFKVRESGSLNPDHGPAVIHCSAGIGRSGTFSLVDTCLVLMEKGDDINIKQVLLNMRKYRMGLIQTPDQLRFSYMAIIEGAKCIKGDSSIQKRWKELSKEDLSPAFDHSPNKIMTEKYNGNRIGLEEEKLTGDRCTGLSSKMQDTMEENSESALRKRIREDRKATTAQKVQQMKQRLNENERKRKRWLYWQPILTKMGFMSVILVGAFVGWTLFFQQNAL
In words: Compound was tested for inhibition of T-cell protein tyrosine phosphatase TC-PTP at a concentration of 100 uM in fluorometric assay using DiFMUP.

Assay [6] has as its target Receptor-type tyrosine-protein phosphatase F (Homo sapiens) (UniProt P10586). The assay can be described thus: Compound was tested for inhibition of Lar tyrosine phosphatase at a concentration of 10 uM in fluorometric assay using DiFMUP.
In assay [7] the target is T1, Tyrosine-protein phosphatase non-receptor type 1 (Homo sapiens). The assay can be described thus: Compound was tested for inhibition of Protein-tyrosine phosphatase 1B at a concentration of 100 uM in fluorometric assay using DiFMUP.
For assay [8], the target named is T2, Tyrosine-protein phosphatase non-receptor type 2 (Homo sapiens). In words: Compound was tested for inhibition of T-cell protein tyrosine phosphatase TC-PTP at a concentration of 10 uM in fluorometric assay using DiFMUP.

Chain of Receptor-type tyrosine-protein phosphatase C (CD45) (Homo sapiens) (P08575 whole entry, looked up): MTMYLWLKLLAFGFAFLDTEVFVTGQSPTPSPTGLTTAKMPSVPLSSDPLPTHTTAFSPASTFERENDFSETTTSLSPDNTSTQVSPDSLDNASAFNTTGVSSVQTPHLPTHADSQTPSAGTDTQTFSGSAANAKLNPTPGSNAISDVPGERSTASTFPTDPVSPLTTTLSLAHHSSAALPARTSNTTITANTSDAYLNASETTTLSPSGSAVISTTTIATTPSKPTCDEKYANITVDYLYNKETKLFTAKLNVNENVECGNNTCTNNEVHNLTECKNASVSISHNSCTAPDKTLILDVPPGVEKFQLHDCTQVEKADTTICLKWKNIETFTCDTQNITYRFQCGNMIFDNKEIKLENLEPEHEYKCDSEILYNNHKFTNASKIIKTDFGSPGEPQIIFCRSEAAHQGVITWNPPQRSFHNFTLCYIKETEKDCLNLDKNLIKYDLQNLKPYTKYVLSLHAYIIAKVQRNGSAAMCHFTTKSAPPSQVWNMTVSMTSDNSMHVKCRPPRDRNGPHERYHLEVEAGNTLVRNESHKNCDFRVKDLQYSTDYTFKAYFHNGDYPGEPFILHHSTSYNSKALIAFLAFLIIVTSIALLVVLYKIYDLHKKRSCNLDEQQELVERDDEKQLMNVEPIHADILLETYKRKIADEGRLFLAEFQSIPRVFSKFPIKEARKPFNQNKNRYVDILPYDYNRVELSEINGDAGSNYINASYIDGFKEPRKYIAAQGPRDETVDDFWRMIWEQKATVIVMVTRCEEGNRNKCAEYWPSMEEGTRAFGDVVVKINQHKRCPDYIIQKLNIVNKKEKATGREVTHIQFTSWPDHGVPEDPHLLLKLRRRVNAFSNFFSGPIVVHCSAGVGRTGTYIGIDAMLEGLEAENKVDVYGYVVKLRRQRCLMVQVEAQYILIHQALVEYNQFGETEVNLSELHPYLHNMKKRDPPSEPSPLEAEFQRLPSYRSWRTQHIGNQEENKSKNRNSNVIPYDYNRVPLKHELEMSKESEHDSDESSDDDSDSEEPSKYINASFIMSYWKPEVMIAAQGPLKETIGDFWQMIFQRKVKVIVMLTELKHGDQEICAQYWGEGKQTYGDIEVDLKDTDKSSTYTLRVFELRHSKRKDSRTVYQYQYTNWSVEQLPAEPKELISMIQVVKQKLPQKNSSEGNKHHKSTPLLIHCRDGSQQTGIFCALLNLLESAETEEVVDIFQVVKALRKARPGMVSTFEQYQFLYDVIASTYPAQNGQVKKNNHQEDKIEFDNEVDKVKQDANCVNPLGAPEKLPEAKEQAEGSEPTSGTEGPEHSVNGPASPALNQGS
Chain of Receptor-type tyrosine-protein phosphatase F (Homo sapiens) (P10586 whole entry): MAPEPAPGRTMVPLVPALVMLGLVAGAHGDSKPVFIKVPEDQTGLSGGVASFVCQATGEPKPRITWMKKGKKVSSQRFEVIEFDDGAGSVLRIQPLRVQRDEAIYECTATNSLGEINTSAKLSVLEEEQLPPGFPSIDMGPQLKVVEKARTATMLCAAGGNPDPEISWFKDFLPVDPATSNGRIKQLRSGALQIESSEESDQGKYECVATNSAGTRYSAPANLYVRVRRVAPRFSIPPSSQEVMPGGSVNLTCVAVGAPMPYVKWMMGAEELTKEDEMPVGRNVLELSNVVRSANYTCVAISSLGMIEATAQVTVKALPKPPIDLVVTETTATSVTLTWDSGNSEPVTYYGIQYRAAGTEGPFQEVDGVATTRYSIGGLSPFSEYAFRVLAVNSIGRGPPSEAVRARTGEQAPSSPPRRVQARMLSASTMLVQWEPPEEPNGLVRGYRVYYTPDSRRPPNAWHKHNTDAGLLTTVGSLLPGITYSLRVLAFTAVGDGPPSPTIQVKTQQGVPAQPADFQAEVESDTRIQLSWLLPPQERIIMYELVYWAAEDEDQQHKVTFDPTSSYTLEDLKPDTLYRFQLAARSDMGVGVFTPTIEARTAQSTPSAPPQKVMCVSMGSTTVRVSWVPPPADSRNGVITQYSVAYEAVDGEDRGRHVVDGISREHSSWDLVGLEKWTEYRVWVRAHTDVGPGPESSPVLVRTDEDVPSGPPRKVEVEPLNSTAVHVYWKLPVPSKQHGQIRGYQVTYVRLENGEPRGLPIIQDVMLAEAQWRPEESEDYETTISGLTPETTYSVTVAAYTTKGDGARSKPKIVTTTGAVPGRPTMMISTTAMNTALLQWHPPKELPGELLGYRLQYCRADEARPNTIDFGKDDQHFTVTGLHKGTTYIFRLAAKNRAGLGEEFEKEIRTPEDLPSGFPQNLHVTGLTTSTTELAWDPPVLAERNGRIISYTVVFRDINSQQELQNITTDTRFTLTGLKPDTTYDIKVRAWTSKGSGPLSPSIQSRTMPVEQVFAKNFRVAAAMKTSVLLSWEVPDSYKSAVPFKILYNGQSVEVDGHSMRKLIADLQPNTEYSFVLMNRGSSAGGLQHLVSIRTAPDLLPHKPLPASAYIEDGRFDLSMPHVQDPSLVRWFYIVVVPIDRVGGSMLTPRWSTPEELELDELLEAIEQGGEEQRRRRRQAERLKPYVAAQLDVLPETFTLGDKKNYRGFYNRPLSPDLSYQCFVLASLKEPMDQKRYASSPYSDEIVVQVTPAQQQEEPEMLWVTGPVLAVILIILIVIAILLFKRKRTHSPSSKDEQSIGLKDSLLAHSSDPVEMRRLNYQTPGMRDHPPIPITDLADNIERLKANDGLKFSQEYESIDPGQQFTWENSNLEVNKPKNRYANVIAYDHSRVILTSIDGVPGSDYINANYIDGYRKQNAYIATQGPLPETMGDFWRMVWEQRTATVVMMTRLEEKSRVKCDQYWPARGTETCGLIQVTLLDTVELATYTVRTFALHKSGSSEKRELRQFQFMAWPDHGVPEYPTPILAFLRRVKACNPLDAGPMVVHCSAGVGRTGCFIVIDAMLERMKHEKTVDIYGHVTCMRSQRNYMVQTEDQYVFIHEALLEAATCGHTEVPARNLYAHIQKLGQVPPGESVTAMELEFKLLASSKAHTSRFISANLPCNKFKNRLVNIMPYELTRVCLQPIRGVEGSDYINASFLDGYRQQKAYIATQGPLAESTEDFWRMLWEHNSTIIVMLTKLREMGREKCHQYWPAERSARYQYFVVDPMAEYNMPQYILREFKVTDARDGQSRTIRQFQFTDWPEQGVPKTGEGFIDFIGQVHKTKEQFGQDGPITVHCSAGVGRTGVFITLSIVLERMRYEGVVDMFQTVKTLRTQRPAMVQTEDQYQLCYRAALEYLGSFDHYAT

In general, inhibition refers to the change of the read-out against control, counted positive when it falls. High values mean a response far below the control, low ones a response near the control. As to `CC(Cn1c(=O)n2n(c1=O)C(C(=O)NC(Cc1ccc3sccc(=O)c3c1)C(=O)O)C=CC2CCCC(=O)O)c1ccccc1` (configuration not stated), the inhibition came out at 15% in assay [1]; 55% in assay [2]; 50% in assay [3]; 55% in assay [4]; 90% in assay [5]; 10% in assay [6]. Further, the inhibition was 95% in assay [7] and 20% in assay [8].
For the compound `O=C(O)CCCC1C=CC(C(=O)NC(Cc2ccc3sccc(=O)c3c2)C(=O)O)n2c(=O)n(-c3ccc(Oc4ccccc4)cc3)c(=O)n21` (configuration not stated), the inhibition in assay [1] stood at 20%; in assay [2], 70%; in assay [3], 70%; in assay [4], 75%; in assay [5], 100%; in assay [6] it was 50%. In addition, the figures for the inhibition in assay [7] and in assay [8] were 100% and 85%, respectively.
As to `O=C(O)CCCC1C=CC(C(=O)NC(Cc2ccc3sccc(=O)c3c2)C(=O)O)n2c(=O)n(CC3CCCCC3)c(=O)n21` (configuration not stated), the inhibition in assay [1] was found to be 20%; in assay [2] it was 70%; in assay [3] it was 10%; in assay [4], 40%; in assay [5] it was 20%; in assay [6], 0%. For the same compound, the inhibition was determined as 70% in assay [7] and 10% in assay [8].
As for `O=C(O)CCCC1C=CC(C(=O)NC(Cc2ccc3sccc(=O)c3c2)C(=O)O)n2c(=O)n(Cc3cc(F)ccc3F)c(=O)n21` (configuration not stated), the inhibition in assay [1] is 5%; in assay [2], 50%; in assay [3], 50%; in assay [4] it was 0%; in assay [5], 100%; in assay [6], 25%. Further, the inhibition in assay [7] is 95%; in assay [8], 85%.
